# Laboratory results published in PMC5481357, “Characterization of Three L-Asparaginases from Maritime Pine (Pinus pinaster Ait.)” (Frontiers in Plant Science, 2017).
# Legend:
# Assay in all cases: GOT/MDH-coupled aspartate release, NADH oxidation; Hanes-Woolf
# Format in all cases: biochemical, Pinus pinaster
# Conditions in all cases: 50 mM HEPES pH 7.8, 50 mM KCl
# [1] = test system: T1, PpASPG1
# T1 construct: full ORF (1128 nt, 375 residues incl. 77-residue variable loop), expressed in Nicotiana benthamiana; conventional purification, untagged by the measured beta mass; autocleaved before Thr245 into alpha (26,431 Da, Met1 removed) and beta (13,325 Da); plant ASPG (alpha beta)2
# Source text: GOT/MDH-coupled aspartate release, NADH oxidation; Hanes-Woolf on […]1 | changes in the Km and Vmax values for L-Asn and β-L-Asp-L-Ala (Supplementary Table S3)
# [2] = test system: T1, PpASPG1; remark: listed apart in the source
# [3] = test system: T2, PpASPG3
# T2 construct: full ORF (918 nt, 305 residues) with C-terminal HA and poly-His tag, expressed in Nicotiana benthamiana, Ni-TED purified; partly processed into alpha and beta subunits
Structure (SMILES),"Km ([1]; deletion variant with C-terminal HA and poly-His tag, partly unprocessed precursor)",Km [2],Km [3],Km [1]
NC(=O)C[C@H](N)C(=O)O [L-Asn],7.16 ± 0.88 mM,4.58 ± 0.03 mM,6.12 ± 0.96 mM,–
C[C@H](NC(=O)C[C@H](N)C(=O)O)C(=O)O [β-L-Asp-L-Ala],–,56.7 ± 13.9 mM,1.04 ± 0.21 mM,9.44 ± 0.82 mM
